The record followed here is patent US20220064138A1, “MACROLIDE BREFELDIN A ESTER DERIVATIVES AND USE THEREOF” (OCEAN UNIVERSITY OF CHINA, priority 2019, published 2022).

≈ marks a conversion by molar mass, not a printed value. Bounds are passed on as bounds.

One may read the IC50 as the concentration at which inhibition is half-maximal. A high value points to a need for much substance. What is called solubility is the concentration that dissolves in the medium under given conditions.

One data set deals with Kunming breed mice. Put plainly: Toxicity test after intraperitoneal administration to mice. The format is in vivo. The conditions noted are these: 14 d. As to the method:
Objective: Observation of toxic effects of compounds after intraperitoneally administration (ip.) to mice
1) Agents: Compounds disclosed herein were formulated to a suitable concentration.
2) Animals: Kunming breed mice, weight 18-22 g, male. Provided by Jinan Pengyue Laboratory Animal Breeding Co., Ltd. Animal license number: SCXK (Shandong 20140007)
Method: Kunming breed mice, were randomly grouped by weight, 6 mice per group, namely normal control group, BFA high and low dose groups (100 mg/kg and 50 mg/kg, respectively), and high and low dose groups of some compounds disclosed herein (BFA effective amount conversion). […] After 14 d of continuous administration, all the animals were weighed, and the animals were executed to observe whether there were any abnormalities in the organs.

In data set [1] the test system is pancreatic cancer PANC-1 cells. In words: Cell proliferation assay (CCK-8). Type of data set: cell-based. Conditions: Homo sapiens, PANC-1, 72 h. Summed up: (§1)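 OD450 after 1.5–3 h CCK-8 (WST-8) development, following 72 h compound exposure of 5000 cells/well plated 24 h earlier in DMEM/10% FBS. Duplicate wells; DMSO ≤2‰. Inhibition vs blank and vehicle control, IC50 by variable-slope fit.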

Data set [2] relates to human breast cancer MCF7 cells. Put plainly: Cell proliferation assay (CCK-8). The format is cell-based. Conditions: MCF7, 72 h. Summed up:
as §1

For data set [3], the system named is human gastric cancer MKN-45 cells. In words: Cell proliferation assay (CCK-8). Type of data set: cell-based. Conditions: MKN-45, 72 h. Summed up: as §1
In data set [4] the test system is Human cervical cancer Hela cells. In words: Cell proliferation assay (CCK-8). The format is cell-based. Conditions: 72 h. An outline of the steps: as §1
In data set [5] the test system is esophageal cancer Eca-109 cells. Put plainly: Cell proliferation assay (CCK-8). The conditions noted are these: Homo sapiens, Eca-109, 72 h. The format is cell-based. Summed up: as §1
Data set [6] has as its system human lung cancer A549 cells. In words: Cell proliferation assay (CCK-8). The format is cell-based. Conditions: A549, 72 h. An outline of the steps:
as §1

In data set [7] the test system is human liver cancer HepG2 cells. In words: Cell proliferation assay (CCK-8). The format is cell-based. The conditions noted are these: HepG2, 72 h. An outline of the steps: as §1
For data set [8], the system named is human leukemia K562 cells. Put plainly: Cell proliferation assay (CCK-8). The format is cell-based. The conditions noted are these: K562, 72 h. An outline of the steps:
as §1

A short description of another data set: physchem. The conditions noted are these: 37° C., x ± s, n = 3.
The mark [9] stands for this setting: male, Kunming, mouse, in vivo, ip.

Method for physchem: Methods: Excess BFA and the compounds disclosed herein were added to 10 mL of three solvents, methanol, acetone and 5% DMSO+95% H2O, respectively, and shaken on a shaker at 37° C. at 100 r/min for 24 h. After 24 h, the samples were centrifuged at 15 000 r/min for 15 min to remove the undissolved compounds. The supernatant was filtered using a 0.45 μm membrane filter. The supernatant was appropriately diluted with methanol and contents of the compounds were determined by HPLC method to calculate the solubility.

Take `C[C@H]1CCC/C=C/[C@@H]2C[C@H](OC(=O)/C=C/c3cccnc3)C[C@H]2[C@H](O)/C=C/C(=O)O1` [Compound 16a, 7-O-(3-(pyridine-3-yl)acrylic acid)acyl BFA]: the Deaths result in the data set on Kunming breed mice (high and low doses (BFA effective amount conversion), ip., mice) is given as “no deaths”. The “Mental condition of the animals after administration” value with Kunming breed mice (setting [9]) is listed as “good mental condition”. The “Results of anatomy: abnormality in organs” value with Kunming breed mice (setting [9]) is on record as “no significant abnormality in all organs”. Moreover, the IC50 in [1] was less than 100 nM; in data set [2], 100 to 1000 nM; in data set [3], 100 to 1000 nM; in data set [4] it was 100 to 1000 nM; in data set [5], 100 to 1000 nM; in data set [6] it was 100 to 1000 nM. Further, the figures for the IC50 in data set [7] and in data set [8] were less than 100 nM and 100 to 1000 nM, respectively. The concentration in solution in the data set “physchem” (Acetone) (solubility at 24 h) was 31.6 ± 0.72 mg/mL (≈ 76.8 mM).
Take `C[C@H]1CCC/C=C/[C@@H]2C[C@H](OC(=O)/C=C/c3cnc4ccccc4c3)C[C@H]2[C@H](OC(=O)/C=C/c2cnc3ccccc3c2)/C=C/C(=O)O1` [Compound 17c]: the IC50 fell in the range of 100 to 1000 nM in data set [1]; 100 to 1000 nM in [2]; 1000 to 10000 nM in data set [3]; 1000 to 10000 nM in data set [4]; 1000 to 10000 nM in data set [5]; 1000 to 10000 nM in data set [6]. Moreover, the IC50 in [7] and in data set [8] was 100 to 1000 nM throughout. For the same compound, the solubility at 24 h in the data set “physchem” (5% DMSO + 95% H2O) stood at 0.45 ± 0.28 mg/mL; in the data set “physchem” (Methanol), 20.4 ± 0.52 mg/mL (≈ 31.8 mM).
